Several values for one entry are separate records, joined by “and”; a condition that tells them apart may be missing. Equal entries are not always repeated.
Legend:
[1] = system: ANIT-induced cholestatic liver injury; assay: ANIT-induced mouse cholestatic liver injury (Example 1); assay type: in vivo, C57BL/6 mice
Description: A total of 18 male C57BL/6 mice were divided into three groups: blank group (n=6); model group (n=6); treatment group (n=6).
Celastrol was dissolved in a solvent to obtain a celastrol solution at a concentration of 2 mg/mL, wherein the solvent consisted of 1% DMSO, 2% Tween 80, and 97% water (v:v:v). For intragastrical administration, the dosage of celastrol was 10 mg/kg·d. ANIT was dissolved in corn oil to obtain a corn oil solution of ANIT at a concentration of 15 mg/mL, and the dosage of ANIT for intragastrical administration was 75 mg/kg.
The treatment group was intragastrically administered with the celastrol solution at a dosage of 10 mg/kg·d for five consecutive days. At the same time, the blank group and the model group were intragastrically administered with the same dosage of a solvent, wherein the solvent consisted of 1% DMSO, 2% Tween 80 and 97% water (v:v:v), and the solvent was administrated for five consecutive days.
On the third day of administration, ANIT model was established. 4 Hours after administration with the solvent or celastrol solution, the model group and the treatment group were respectively intragastrically administered with the ANIT corn oil solution to induce cholestatic liver injury at a dosage of 75 mg/kg for single administration, and the blank group was fed with an equal dosage of corn oil. After the model was established, the treatment group was continuously administrated with the celastrol solution, and the blank group and the model group was continuously administrated with the same dosage of solvent.
48 Hours after the model was established, the mice were sacrificed by CO2 anesthesia, and mouse livers and plasma samples were taken. The eyeballs of the mice were taken for blood collection. The plasma samples were placed on ice for 1-2 hours, centrifuged at 4000 g for 5 minutes at 4° C., and the supernatant was taken to determine the plasma biochemical indicators, the levels of ALT, AST and ALP.
At the same time, plasma samples were prepared: 10 μL of plasma sample was taken, mixed with 190 μL of 67% (v/v) acetonitrile (containing 5 μM internal standard chlorpropamide), centrifuged at 18000 g for 20 minutes at 4° C., and the supernatant was taken for sample injection.
Liver samples were prepared: 100 mg of liver samples were mixed well with 1 mL of 50% (v/v) acetonitrile (containing 5 μM internal standard chlorpropamide), shaken for 20 minutes at room temperature, and then centrifuged at 18000 g for 20 minutes at 4° C. Thereafter, 200 μL of the supernatant was taken and added with 200 μL of pure acetonitrile, vortexed for 1 minute, centrifuged at 18000 g for 20 minutes at 4° C., and the supernatant was taken for sample injection.
The liquid chromatography conditions were as follows: the injection volume was 5 μL; the column temperature was 45° C.; the flow rate of mobile phase was 0.3 mL/min; the gradient elution was that acetonitrile concentration changed from 2% to 98% during 16 minutes of operation, wherein the mobile phase (water/acetonitrile solution) contained 0.01% formic acid. The elution procedure was as follows: during 0-12th minute, the acetonitrile concentration changed from 2% to 98% at a constant rate; during 12-14th minute, the acetonitrile concentration was maintained at 98%; during 14-14.1th minute, the acetonitrile concentration changed from 98% to 2%; during 14.1-16th minute, the acetonitrile concentration was maintained at 2%. Mass spectrometry conditions were as follows: the temperature of dry gas was 350° C., the pressure of nebulizer was 35 psi, and the voltage of capillary was 3.5 kV.
Part of the collected mouse liver tissue was fixed overnight in formalin and tissue sections were stained with hematoxylin and eosin (H&E).

[2] = system: TAA-induced cholestatic liver injury under SIRT1 inhibition; assay: Effect of SIRT1 inhibition (EX527) on celastrol activity in TAA model (Example 4); assay type: in vivo, C57BL/6 mice
Description: A total of 24 male C57BL/6 mice were divided into four groups: blank group (n=6);
model group (n=6); treatment group (n=6); EX527 group (n=6).
Celastrol was dissolved in a solvent to obtain a solution of celastrol at a concentration of 2 mg/mL, wherein the solvent consisted of 1% DMSO, 2% Tween, and 97% water (v:v:v). For intragastrical administration, the dosage of celastrol was 10 mg/kg·d. TAA was dissolved in 0.9% NaCl solution to prepare a NaCl solution of TAA at a concentration of 60 mg/mL, and the dosage of TAA for intraperitoneal administration was 300 mg/kg. EX527 was dissolved in corn oil to prepare a corn oil solution of EX527 at a concentration of 2 mg/mL, and the dosage of EX527 for intraperitoneal administration was 10 mg/kg. d.
The EX527 group was simultaneously administered with the celastrol solution and the EX527 corn oil solution for 4 consecutive days. The treatment group was administrated with the celastrol solution and an equal dosage of corn oil for 4 consecutive days. At the same time, the blank group and the model group were administrated with equal dosages of solvent (1% DMSO, 2% Tween 80 and 97% water (v:v:v)) and corn oil, and the solvent was administrated for 4 consecutive days.
On the 4th day, the establishment of TAA model was performed. 1 Hour after administration, the mice in the model group, the treatment group and the EX527 group were intraperitoneally injected with TAA at a dosage of 300 mg/kg to induce cholestatic liver injury. 24 Hours after administration with TAA, the mice were sacrificed by CO2 anesthesia, and plasma samples and liver samples were collected. The eyeballs of the mice were taken for blood collection. The plasma samples were placed on ice for 1-2 hours, centrifuged at 4000 g for 5 minutes at 4° C., and the supernatants of plasma samples were taken to determine the plasma biochemical indicators, the levels of ALT, AST, and ALP.
At the same time, plasma samples were prepared: 10 μL of plasma sample was mixed with 190 μL of 67% acetonitrile (containing 5 μM internal standard chlorpropamide), centrifuged at 18000 g for 20 minutes at 4° C., and the supernatant was taken for sample injection. The liquid chromatography conditions were as follows: the volume of injection was 5 μL; the temperature of column was 45° C.; the flow rate of mobile phase was 0.3 mL/min; the gradient elution was that acetonitrile concentration changed from 2% to 98% during 16 minutes of operation, wherein the mobile phase (water/acetonitrile solution) contained 0.01% formic acid. The elution procedure was as follows: during 0-12th minute, the acetonitrile concentration changed from 2% to 98% at a constant rate; during 12-14th minute, the acetonitrile concentration was maintained at 98%; during 14-14.1th minute, the acetonitrile concentration changed from 98% to 2%; during 14.1-16th minute, the acetonitrile concentration was maintained at 2%. Mass spectrometry conditions were as follows: the temperature of dry gas was 350° C., the pressure of nebulizer was 35 psi, and the voltage of capillary was 3.5 kV.
Part of the collected mouse liver tissue was fixed overnight in formalin, and tissue sections were stained with hematoxylin and eosin (H&E).

[3] = celastrol 10 mg/kg·d intragastric 5 days, ANIT 75 mg/kg on day 3, 48 h after ANIT, n=6
[4] = celastrol 10 mg/kg·d intragastric 5 days, ANIT 75 mg/kg, 48 h after ANIT, n=6
[5] = treatment group: celastrol 10 mg/kg·d, TAA model, P<0.05, FIG. 4E

**Q.** Which “Levels of bile acids in plasma vs ANIT model group” value ([1]; CA, DCA, TβMCA/TαMCA, TCA, THDCA/TUDCA, celastrol 10 mg/kg·d, FIG. 1D) does the source give for `CC1=C(O)C(=O)C=C2C1=CC=C1[C@@]2(C)CC[C@@]2(C)[C@@H]3C[C@](C)(C(=O)O)CC[C@]3(C)CC[C@]12C` [celastrol, Celastrol] here?
**A.** significantly lower

**Q.** And the “Liver weight of mouse when sacrificed” value [1, 3]?
**A.** 1.01 g and 1.01 ± 0.05 g

**Q.** What about the Liver weight/body weight [1, 3] of the same compound?
**A.** 4.66% and 4.66 ± 0.23 %

**Q.** And the “ALP in mouse plasma” value [1, 4]?
**A.** 27.3 ± 3.7 U/l

**Q.** What about the “ALT in mouse plasma” value [1, 4] of the same compound?
**A.** 54.0 ± 36.4 U/l

**Q.** And the “AST in mouse plasma” value [1, 4]?
**A.** 72.0 ± 34.4 U/l

**Q.** What about the “H&E staining of mouse liver tissue” value ([1]; celastrol 10 mg/kg·d intragastric, ANIT model, FIG. 1C) of the same compound?
**A.** no obvious damage

**Q.** What about the “Levels of bile acids in liver vs ANIT model group” value ([1]; ω-MCA, β-MCA, CA, DCA, TβMCA/TαMCA, TCA, GCA, TLCA, celastrol 10 mg/kg·d, FIG. 1E) of the same compound?
**A.** significantly lower

**Q.** And the “H&E staining: area of necrosis of liver cells” value ([2]; treatment group: celastrol 10 mg/kg·d intragastric + corn oil, TAA model, FIG. 4C)?
**A.** significantly reduced

**Q.** What about the “ALT level in plasma vs model group” value [2, 5] of the same compound?
**A.** lower

**Q.** What about the “AST level in plasma vs model group” value [2, 5] of the same compound?
**A.** lower

**Q.** And the “Levels of bile acids in plasma vs TAA model group” value ([2]; ω-MCA, DCA, TβMCA/TαMCA, TCA, THDCA/TUDCA, TCDCA, TDCA, treatment group: celastrol 10 mg/kg·d, P<0.05, FIG. 4F)?
**A.** significantly lower

From US11607417B2, “Uses of celastrol in preventing and/or treating cholestatic liver disease and liver fibrosis” (KUNMING INSTITUTE OF BOTANY, THE CHINESE ACADEMY OF SCIENCES, priority 2017, dated 2023)
